Starred links: 1 amine or outer side, 2 acyl side, 3 side chain; linkers in the order of their positions; H or OH if unused. Non-standard residues stand in square brackets, D forms with d. Residues, ends and D or L forms follow the SMILES beside them. X1 = O=C(O)COc1ccc(C[C@H](N[*:1])C(=O)[*:2])cc1C(=O)O; F2Pmp = N[C@@H](Cc1ccc(C(F)(F)P(=O)(O)O)cc1)C(=O)O
Each compound was assayed against T1, Tyrosine-protein phosphatase non-receptor type 1 (Homo sapiens, UniProt P18031) (assay: Inhibitory activity against human Protein-tyrosinephosphatase 1B (PTP1B)).
T1 sequence (P18031 whole entry): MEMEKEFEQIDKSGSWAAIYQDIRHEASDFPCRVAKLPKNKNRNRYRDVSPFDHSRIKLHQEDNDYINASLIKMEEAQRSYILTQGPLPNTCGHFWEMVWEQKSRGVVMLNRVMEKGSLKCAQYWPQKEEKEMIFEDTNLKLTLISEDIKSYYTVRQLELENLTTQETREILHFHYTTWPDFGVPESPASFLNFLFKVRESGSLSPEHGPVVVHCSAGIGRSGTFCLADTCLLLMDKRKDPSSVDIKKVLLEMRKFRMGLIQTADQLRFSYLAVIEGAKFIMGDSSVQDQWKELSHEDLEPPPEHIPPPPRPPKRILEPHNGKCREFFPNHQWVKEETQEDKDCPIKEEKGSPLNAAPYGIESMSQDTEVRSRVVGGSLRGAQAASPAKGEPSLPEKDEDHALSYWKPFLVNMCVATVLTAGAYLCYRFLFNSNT

| IC50 | Ki | SMILES |
| --- | --- | --- |
| 29 mM | – | CS(=O)(=O)Nc1cccc2cc(S(=O)(=O)O)ccc12 |
| 9.4 mM | – | O=C(O)COc1ccc2cc(C(=O)O)ccc2c1 |
| 9.4 mM | – | O=C(O)c1ccc2cc(OC(F)(F)C(=O)O)ccc2c1 |
| > 4 mM | – | O=S(=O)(O)c1ccc2c(S(=O)(=O)O)cc(S(=O)(=O)O)cc2c1 |
| – | 0.022 mM | O=C(O)c1ccc2cc(C(F)(F)P(=O)(O)O)ccc2c1 |
| – | 0.012 mM | NC(=O)[C@@H](CCC(=O)O)NC(=O)c1ccc2cc(C(F)(F)P(=O)(O)O)ccc2c1 |
| > 3.2 mM | – | O=C(O)c1ccc2ccc(C(=O)O)cc2c1 |
| 28 mM | – | O=S(=O)([O-])c1cccc2c(S(=O)(=O)[O-])cccc12.[Na+].[Na+] |
| – | 0.0036 mM | CC(=O)N[C@@H](CC(=O)O)C(=O)N[C@@H](C)C(=O)N[C@@H](CC(=O)O)C(=O)N[C@@H](CCC(=O)O)C(=O)N[C@@H](Cc1ccc(OCC(=O)O)c(C(=O)O)c1)C(=O)N[C@@H](CC(C)C)C(N)=O (Ac-DADE[X1]L-NH2) |
| – | 0.031 mM | O=C(O)c1ccc2c(C(=O)O)cccc2c1 |
| 3.8 mM | – | NC(=O)[C@H](CCC(=O)O)NC(=O)c1ccc2c(C(=O)O)c(OCC(=O)O)ccc2c1 |
| 2.8 mM | – | COC(=O)c1ccc2c(C(=O)O)c(OC)ccc2c1 |
| – | 0.25 mM | O=C(O)COc1cc2ccc(C(=O)O)cc2cc1C(=O)O |
| > 4 mM | – | O=C(O)c1ccc2cc(C(=O)O)ccc2c1 |
| 20 mM | – | COc1ccc2cc(C(=O)O)ccc2c1C(=O)O |
| > 4 mM | – | O=S(=O)(O)c1ccc2cc(S(=O)(=O)O)ccc2c1 |
| 12 mM | – | O=C(O)c1ccc2c(C(=O)O)c(O)ccc2c1 |
| – | 0.9 mM | O=C(O)COc1ccc2cc(C(=O)O)ccc2c1C(=O)O |

| SMILES | IC50 | Ki |
| --- | --- | --- |
| CC(=O)N[C@@H](CC(=O)O)C(=O)N[C@@H](C)C(=O)N[C@@H](CC(=O)O)C(=O)N[C@@H](CCC(=O)O)C(=O)N[C@@H](Cc1ccc(C(F)(F)P(=O)(O)O)cc1)C(=O)N[C@@H](CC(C)C)C(N)=O (Ac-DADE[F2Pmp]L-NH2) | – | 0.0002 mM |

— ChEMBL document CHEMBL1134573, “Utilization of a peptide lead for the discovery of a novel PTP1B-binding motif” (J Med Chem, 2001)
